9 compounds from patent US9944666B2, “Compounds that are S1P modulating agents and/or ATX modulating agents” (BIOGEN MA INC., priority 2012, dated 2018) can be followed below.

Each structure is given as a SMILES string.

One may read the IC50 as the midpoint of a concentration-inhibition curve.

The target in the first experiment is T1, human S1P4 (Homo sapiens, UniProt O95977).
T1 construct: host or cells: recombinant CHEM cells
T1 sequence (O95977 1-384): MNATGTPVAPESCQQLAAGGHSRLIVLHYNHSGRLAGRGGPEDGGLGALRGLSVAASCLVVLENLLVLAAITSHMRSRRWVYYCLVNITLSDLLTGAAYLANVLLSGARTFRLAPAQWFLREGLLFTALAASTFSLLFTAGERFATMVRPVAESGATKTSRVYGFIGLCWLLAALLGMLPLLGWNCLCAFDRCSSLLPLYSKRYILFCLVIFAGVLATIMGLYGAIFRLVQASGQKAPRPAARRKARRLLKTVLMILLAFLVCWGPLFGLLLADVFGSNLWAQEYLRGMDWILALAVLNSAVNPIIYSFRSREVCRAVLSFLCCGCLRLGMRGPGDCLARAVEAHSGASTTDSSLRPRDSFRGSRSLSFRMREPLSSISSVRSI
As to the kind of experiment: S1P receptor calcium mobilization assay, antagonist format. The format is cell-based. The settings on record: recombinant CHEM cells expressing human S1P4; calcium flux, FLIPR; stimulated with EC80 of reference agonist. How it is done:
(§1) Compounds that are not specific for a particular S1P receptor can cause undesirable side effects. Accordingly, compounds are tested to identify those that are specific. Accordingly, the test compounds are tested in a calcium mobilization assay/S1P receptor activity assay. The procedure is essentially as described in Davis et al. (2005) Journal of Biological Chemistry, vol. 280, pp. 9833-9841, which is incorporated by reference in its entirety with the following modifications. Calcium mobilization assays are performed in recombinant CHEM cells expressing human S1P1, S1P2, S1P3, S1P4, or S1P5 purchased from Millipore (Billerica, Mass.). To detect free intracellular calcium, S1P1, S1P2, S1P3, S1P4, or S1P5 cells are loaded with FLIPR Calcium 4 dye from Molecular Devices (Sunnyvale, Calif.). Cells are imaged for calcium mobilization using a FLIPR^TERA equipped with a 96-well dispense head.
Agonist percentage activation determinations were obtained by assaying sample compounds and referencing the Emax control for each receptor profiled. Antagonist percentage inhibition determinations were obtained by assaying sample compounds and referencing the control EC80 wells for each receptor profiled.
Sample compounds were plated in an eight-point, four-fold dilution series in duplicate with a top concentration of 10 μM. The concentrations described here reflect the final concentration of the compounds during the antagonist assay. During the agonist assay the compound concentrations were 1.25 fold higher to allow for the final desired concentration to be achieved with further dilution by EC80 of reference agonists during the antagonist assay.
Reference agonists were handled as mentioned above serving as assay control. The reference agonists were handled as described above for Emax.
Assay was read for 180 seconds using the FLIPR^TETRA (This assay run added sample compounds and reference agonist to respective wells). At the completion of the first “Single Addition” assay run, assay plate was removed from the FLIPR^TETRA and placed at 25° C. for seven (7) minutes.
Using the EC80 values determined during the agonist assay, stimulated all pre-incubated sample compound and reference antagonist (if applicable) wells with EC80 of reference agonist. Read for 180 seconds using the FLIPR^TETRA (This assay added reference agonist to respective wells-then fluorescence measurements were collected to calculate percentage inhibition values).
For `CC(C)[C@H]1CC[C@H](Oc2ccc3cc(CNC45CCC(C(=O)O)(CC4)CC5)ccc3c2)CC1` [Example 4, 4-(((6-((trans-4-isopropylcyclohexyl)oxy)naphthalen-2-yl)methyl)amino)bicyclo[2.2.2]octane-1-carboxylic acid], the IC50 was not above 0.25 µM.
The same measure, in the same setting: the same measure for `O=C(O)C12CCC(NCc3ccc4cc(OC5CCC6(CCCCC6)CC5)ccc4c3)(CC1)CC2` [Example 11, 4-(((6-(spiro[5.5]undecan-3-yloxy)naphthalen-2-yl)methyl)amino)bicyclo[2.2.2]octane-1-carboxylic acid]: not above 0.25 µM.
Still for that read-out and setting: the same measure for `CC(C)(C)[C@H]1CC[C@H](Oc2ccc3cc(CN4CCN(c5ncccn5)CC4)ccc3c2)CC1` [Example 44, 2-(4-((6-((trans-4-(tert-butyl)cyclohexyl)oxy)naphthalen-2-yl)methyl)piperazin-1-yl)pyrimidine]: not above 0.5 µM; for `CC(C)(C)[C@H]1CC[C@H](Oc2ccc3cc(CN4CCN(c5ccncc5)CC4)ccc3c2)CC1` [Example 46, 1-((6-((trans-4-(tert-butyl)cyclohexyl)oxy)naphthalen-2-yl)methyl)-4-(pyridin-4-yl)piperazine]: not above 0.5 µM.
The same measure, in the same setting: the result for `CC(C)(C)[C@H]1CC[C@H](Oc2ccc3cc(CN4CC(C5CCCC(C(=O)O)C5)C4)ccc3c2)CC1` (stereo partly drawn) [Example 58, 3-(1-((6-((trans-4-(tert-butyl)cyclohexyl)oxy)naphthalen-2-yl)methyl)azetidin-3-yl)cyclohexanecarboxylic acid] reads not above 0.1 µM.
Take `CC(C)(C)[C@H]1CC[C@H](Oc2ccc3cc(CN4CC5(COC5)C4)ccc3c2)CC1` [Example 67, 6-((6-((trans-4-(tert-butyl)cyclohexyl)oxy)naphthalen-2-yl)methyl)-2-oxa-6-azaspiro[3.3]heptane]: the IC50 was not above 0.5 µM.
As to `CC(C)(C)[C@H]1CC[C@H](Oc2ccc3cc(CN4CC5CC(C4)C5C(=O)O)ccc3c2)CC1` (stereo partly drawn) [Example 74, 3-((6-((trans-4-(tert-butyl)cyclohexyl)oxy)naphthalen-2-yl)methyl)-3-azabicyclo[3.1.1]heptane-6-carboxylic acid], the IC50 was not above 0.1 µM.
Still for that read-out and setting: the result for `CC(C)(C)[C@H]1CC[C@H](Oc2ccc3cc(CNC45CCC(C(=O)O)(CC4)C(O)C5)ccc3c2)CC1` (stereo partly drawn) [Example 80, 4-((6-(trans-4-tert-Butylcyclohexyloxy)naphthalen-2-yl)methylamino)-2-hydroxybicyclo[2.2.2]octane-1-carboxylic acid] reads not above 0.25 µM.

The next experiment deals with T1, human S1P4. Description: S1P receptor calcium mobilization assay, agonist format. The settings on record: recombinant CHEM cells expressing human S1P4, calcium flux, FLIPR. Type of experiment: cell-based. How it is done: as §1
Agonist percentage activation determinations were obtained by assaying sample compounds and referencing the Emax control for each receptor profiled. Antagonist percentage inhibition determinations were obtained by assaying sample compounds and referencing the control EC80 wells for each receptor profiled. […]
Assay was read for 180 seconds using the FLIPR^TETRA (This assay run added sample compounds and reference agonist to respective wells). […]
`CC1(C)CCC(Oc2ccc3cc(CN4CC(C5CCCC(C(=O)O)C5)C4)ccc3c2)CC1` (stereo not drawn) [Example 62, 3-(1-((6-((4,4-dimethylcyclohexyl)oxy)naphthalen-2-yl)methyl)azetidin-3-yl)cyclohexanecarboxylic acid]: the IC50 was not above 0.5 µM.
